Non-standard residues stand in square brackets, D forms with d. Residues, ends and D or L forms follow the SMILES beside them. ξ: configuration not given here. *: point of attachment. Chg = N[CH](C(=O)O)C1CCCCC1; Nle = CCCC[CH](N)C(=O)O; Cbz = O=C(OCc1ccccc1)*; ξNle = CCCCC(N)C(=O)O; CHN2 = [N-]=[N+]=C*
System: Aβ formation in HGB 717/Swed cells
Test: Immunoblot assay for Aβ peptide (inhibition of Aβ formation)
Type: cell-based, Human
Settings: concentration of 10 μM, overnight, relative to DMSO control

Row | Compound | % INHIBITION OF Aβ [%]
1 | CC(=O)N[C@@H](CC(C)C)C(=O)N[C@@H](CC(C)C)C(=O)NC(C=O)CC1CCCCC1 (mixture of isomers) [Ac-L-L-Cha-(H), N-Ac-L-Leu-L-Leu-DL-cyclohexylalaninal] | 46
2 | C=C(C)CC(C=O)NC(=O)[C@H](Cc1ccccc1)NC(=O)[C@H](CC(C)C)NC(=O)OCc1ccccc1 (mixture of isomers) [Cbz-L-F-Lene-(H), (2SR)-N-Cbz-L-Leu-L-Phe-N-[2-(4-methyl-4-pentenal)]amide] | 69
3 | C=C(C)CC(C=O)NC(=O)[C@H](CC(C)C)NC(=O)[C@H](CC(C)C)NC(=O)OCc1ccccc1 (mixture of isomers) [Cbz-L-L-Lene-(H), (2SR)-N-Cbz-L-Leu-L-Leu N-[2-(4-methyl-4-pentenal)]amide] | 95

Same assay, conditions: concentration of 40 μM, overnight, relative to DMSO control

Row | Compound | % INHIBITION OF Aβ [%]
4 | C=C(C)CC(C=O)NC(=O)[C@H](CC(C)C)NC(=O)[C@H](CC(C)C)OCc1ccccc1 (mixture of isomers) [2S-benzoxyvaleric-L-Lene-(H), (2SR)-N-[(2S)-2-benzoxy-4-methylpentanoyl]-L-Leu N-[2-(4-methyl-4-pentenal)]amide] | 85
5 | CC(C)C[C@H](NC(=O)OCc1ccccc1)C(=O)N[C@@H](Cc1ccccc1)C(=O)NC(C=O)CC1CCCCC1 (mixture of isomers) [Cbz-L-F-Cha-(H), (2SR)-N-Cbz-L-Leu-L-Phe-DL-cyclohexylalaninal] | 100
6 | CCCCC(C=O)N(C)C(=O)[C@H](CC(C)C)NC(=O)[C@H](CC(C)C)NC(=O)OCc1ccccc1 (mixture of isomers) [Cbz-L-L-[CH3]-Nl-(H), N-Cbz-L-Leu-L-Leu-DL-(methyl)norleucinal] | 97
7 | CCCCC(C=O)NC(=O)[C@H](CC(C)C)N(C)C(=O)[C@H](CC(C)C)NC(=O)OCc1ccccc1 (mixture of isomers) [Cbz-L-[CH3]-L-Nl-(H), N-Cbz-L-Leu-L-(methyl)Leu-DL-norleucinal] | 77
8 | CCCCC(C=O)NC(=O)C(CC(C)C)NC(=O)C1CCCN1C(=O)OCc1ccccc1 [Cbz-P-L-Nl-(H), N-Cbz-L-Pro-L-Leu-L-norleucinal] (Cbz-Pro-Leu-[Nle]-aldehyde; configuration not given here) | 80

Same assay, conditions: concentration of 50 μM, overnight, relative to DMSO control

Row | Compound | % INHIBITION OF Aβ [%]
9 | CCCCC(C=O)NC(=O)[C@H](CC(C)C)NC(=O)[C@H](CC(C)C)NC(=O)OCC1c2ccccc2-c2ccccc21 (mixture of isomers) [Fmoc-L-L-Nl-(H), N-Fmoc-L-Leu-L-Leu-DL-norleucinal] | 89

Same assay, conditions: concentration of 75 μM, overnight, relative to DMSO control

Row | Compound | % INHIBITION OF Aβ [%]
10 | CCCCC(NC(=O)[C@H](CC(C)C)NC(=O)[C@H](CC(C)C)NC(C)=O)C(=O)C(F)(F)F (mixture of isomers) [Ac-L-L-Nl-(TFMK), (3SR)-N-Ac-L-Leu-L-Leu N-[3-(1,1,1-trifluoro-2-oxoheptyl)]amide] | 50
11 | CC=CCC(C=O)NC(=O)[C@H](CC(C)C)NC(=O)[C@H](CC(C)C)NC(C)=O (mixture of isomers) [Ac-L-L-Nlene-(H), (2SR)-N-Ac-L-Leu-L-Leu N [2-(trans-4-hexenal)]amide] | 96
12 | CC(=O)NC(CC(C)C)C(=O)NC(CC(C)C)C(=O)NC(C=O)C1CCCCC1 [Ac-L-L-Chg-(H)] (Ac-Leu-Leu-[Chg]-aldehyde; configuration not given here) | 99
13 | CCCCC(C#N)NC(=O)[C@H](CC(C)C)NC(=O)[C@H](CC(C)C)NC(C)=O (stereo partly drawn) [Ac-L-L-Nl-(CN), (2S)-N-Ac-L-Leu-L-Leu N-[2-(hexanenitrile)]amide] | 94
14 | CCCCC(NC(=O)[C@H](CC(C)C)NC(=O)[C@H](CC(C)C)NC(C)=O)C(=O)C=[N+]=[N-] (stereo partly drawn) [Ac-L-L-Nl-(DM), N-Ac-L-Leu-L-Leu-L-Nle-COCHN2] (Ac-Leu-Leu-[ξNle]-CHN2) | 87

Reference: patent US6015879A, “Peptide and peptide analog protease inhibitors” (Sibia Neurosciences, Inc., priority 1995, dated 2000)
